The target in one series is SCTR (Homo sapiens, UniProt P47872). Put plainly: hSCTR potency, cAMP accumulation in CHO-K1 cells stably overexpressing hSCTR. It counts as cell-based. Also on record: alternatively Euroscreen ES-712-AF; FAST-0161L; host or cells: CHO-K1. Conditions: cAMP accumulation. The method in brief:
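In this Gs cAMP assay, stably transfected CHO-K1 hSCTR cells were stimulated at room temperature for 30 min in IBMX-containing buffer. Time-resolved FRET gave the signal. Replicates were increased when the top concentration changed or EC50 values differed 5-fold.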
On the technique in general: Cyclic AMP is a second messenger, typically raised through Gs and lowered through Gi signalling.

A short description of series [1]: Fibril formation of crude library peptides (Thioflavin T). Conditions: Physical stability of peptides. Also on record: key: average ThT fluorescence emission at 480 nm (ex 450 nm), raw units. It counts as physicochemical. The method in brief: (§1)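 Fibril formation is scored as average ThT fluorescence from duplicate samples monitored for 72 h at 40° C with shaking stress. Turbidity is the absorbance at 600 nm taken before heating. Peptide concentration was 267 μM at pH 4.0 or pH 7.0.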

Another series has as its target GLP1R (Homo sapiens, UniProt P43220). Put plainly: hGLP1R potency, cAMP accumulation in CHO-K1 cells stably overexpressing hGLP1R. It counts as cell-based. Further details: host or cells: CHO-K1. Conditions: for EC50: cAMP accumulation; for SCTR EC50/GLP1R EC50 ratio: cAMP accumulation in CHO-K1 cells. The method in brief:
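In the presence of 0.5 mM IBMX, compounds stimulated the cells for 30 minutes at room temperature. Accumulated cAMP was then detected by TR-FRET, with EC50 values fitted by variable-slope nonlinear regression.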

Series [2] can be described thus: Turbidity of crude library peptides (absorbance at 600 nm). It counts as physicochemical. The settings on record: Physical stability of peptides. The method in brief:
as §1

[3] abbreviates: CHO-K1 cells stably overexpressing hSCTR, read-out: hSCTR potency (pEC50) (converted).
The mark [4] stands for this setting: CHO-K1 cells stably overexpressing hGLP1R, read-out: hGLP1R potency (pEC50) (converted).
[5] abbreviates: selectivity ratio, hSCTR vs hGLP1R.
Setting [6] is: CHO-K1 cells overexpressing hSCTR, read-out: hSCTR pEC50 (converted).
Setting [7] is: CHO-K1 cells overexpressing hGLP1R, read-out: hGLP1R pEC50 (converted).
[8] abbreviates: selectivity for hGLP1R over hSCTR.

Read-outs that look alike come from different tables or passages of the source. Numbered stars: 1 amine (or outer) side, 2 acyl side, 3 side chain; on linkers, the order of the positions; unused ones are H or OH. Square brackets hold non-standard residues; d marks the D form. Side chains are listed from the residue outwards. Peptide text beside a SMILES is read from it. * marks the point of attachment. C20 diacid = O=C(O)CCCCCCCCCCCCCCCCCCC(=O)*; γGlu = O=C(O)[C@H](CCC(=O)[*:2])N[*:1]; AEEA = NCCOCCOCC(=O)O; Aib = CC(C)(N)C(=O)O

SCTR, sequence (P47872 23-440): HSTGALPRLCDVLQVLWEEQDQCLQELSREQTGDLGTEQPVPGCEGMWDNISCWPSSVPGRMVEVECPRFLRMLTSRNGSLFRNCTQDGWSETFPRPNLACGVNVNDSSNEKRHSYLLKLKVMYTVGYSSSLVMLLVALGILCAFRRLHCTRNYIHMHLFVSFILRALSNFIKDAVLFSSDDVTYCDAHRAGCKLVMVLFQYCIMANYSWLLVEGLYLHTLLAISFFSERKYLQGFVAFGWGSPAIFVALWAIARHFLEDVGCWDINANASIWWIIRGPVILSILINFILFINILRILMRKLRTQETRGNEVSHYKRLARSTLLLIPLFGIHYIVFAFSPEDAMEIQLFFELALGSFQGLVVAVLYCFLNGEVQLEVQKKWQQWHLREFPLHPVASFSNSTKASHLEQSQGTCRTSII
GLP1R, sequence (P43220 24-463): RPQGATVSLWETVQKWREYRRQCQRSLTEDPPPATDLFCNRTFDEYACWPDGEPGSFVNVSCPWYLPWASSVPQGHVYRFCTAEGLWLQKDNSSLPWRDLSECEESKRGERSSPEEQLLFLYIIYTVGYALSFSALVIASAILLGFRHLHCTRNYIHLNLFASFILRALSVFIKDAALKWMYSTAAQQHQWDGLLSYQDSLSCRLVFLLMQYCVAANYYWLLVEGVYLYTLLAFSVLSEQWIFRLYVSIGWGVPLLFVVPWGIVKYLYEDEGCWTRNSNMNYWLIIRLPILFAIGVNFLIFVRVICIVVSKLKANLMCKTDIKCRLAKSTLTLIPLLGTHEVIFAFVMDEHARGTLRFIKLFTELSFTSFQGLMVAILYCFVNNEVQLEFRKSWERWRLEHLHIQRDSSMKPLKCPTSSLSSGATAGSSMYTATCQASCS

As for `CC[C@H](C)[C@H](NC(=O)[C@H](Cc1ccccc1)NC(=O)[C@H](CCCNC(=N)N)NC(=O)[C@H](CCC(N)=O)NC(=O)[C@H](CC(C)C)NC(=O)[C@H](C)NC(=O)[C@H](C)NC(=O)CNC(=O)[C@H](CCC(=O)O)NC(=O)[C@H](CC(C)C)NC(=O)[C@H](CC(C)C)NC(=O)[C@H](Cc1ccc(O)cc1)NC(=O)[C@H](CO)NC(=O)[C@H](Cc1ccc(O)cc1)NC(=O)[C@H](CC(=O)O)NC(=O)[C@H](CO)NC(=O)[C@@H](NC(=O)[C@H](Cc1ccccc1)NC(=O)[C@@H](NC(=O)CNC(=O)[C@H](CCC(=O)O)NC(=O)C(C)(C)NC(=O)[C@@H](N)Cc1c[nH]cn1)[C@@H](C)O)[C@@H](C)O)C(=O)N[C@@H](CCC(N)=O)C(=O)N[C@@H](Cc1c[nH]c2ccccc12)C(=O)N[C@@H](CC(C)C)C(=O)N[C@H](C(N)=O)C(C)C` [compound 201] (H-H[Aib]EGTFTSDYSYLLEGAALQRFIQWLV-NH2), the EC50 was 12.6 nM at SCTR (setting [3]) and 0.0126 nM at GLP1R (setting [4]). For the same compound, in series [1], the Fibril formation is given as 30208. For the same compound, on GLP1R (setting [5]), the “SCTR EC50/GLP1R EC50 ratio” value was 940. In series [2], the “Turbidity (pH 7)” value is given as 0.30.

On to `CC(C)C[C@H](NC(=O)[C@H](Cc1ccccc1)NC(=O)[C@H](CCCNC(=N)N)NC(=O)[C@H](CCC(N)=O)NC(=O)[C@H](C)NC(=O)[C@H](C)NC(=O)[C@H](C)NC(=O)[C@@H](NC(=O)[C@H](CCC(=O)O)NC(=O)[C@H](CCCCNC(=O)COCCOCCNC(=O)COCCOCCNC(=O)CC[C@H](NC(=O)CCCCCCCCCCCCCCCCCCC(=O)O)C(=O)O)NC(=O)[C@H](CC(C)C)NC(=O)[C@H](CCC(=O)O)NC(=O)[C@H](CO)NC(=O)[C@@H](NC(=O)[C@H](CC(=O)O)NC(=O)[C@H](CO)NC(=O)[C@@H](NC(=O)[C@H](Cc1ccccc1)NC(=O)[C@@H](NC(=O)CNC(=O)[C@H](CCC(=O)O)NC(=O)C(C)(C)NC(=O)[C@@H](N)Cc1c[nH]cn1)[C@@H](C)O)[C@@H](C)O)C(C)C)[C@@H](C)O)C(=O)N[C@@H](CCC(=O)O)C(=O)N[C@@H](Cc1c[nH]cn1)C(=O)N[C@@H](CC(C)C)C(=O)N[C@H](C(N)=O)C(C)C` [compound 57] (H-H[Aib]EGTFTSDVSELK([AEEA-AEEA-γGlu-C20 diacid])ETAAAQRFLEHLV-NH2), for which the EC50 at SCTR (CHO-K1 cells overexpressing hSCTR, read-out: pEC50 hSCTR (converted)) is 5010 nM; on GLP1R (CHO-K1 cells overexpressing hGLP1R, read-out: pEC50 hGLPR1 (converted)) it was 0.0251 nM. Besides, the Fibril formation in series [1] worked out at 4882. The Selectivity at GLP1R (SCTR EC50/GLP1R EC50 ratio) stood at 212618. Moreover, in series [2], the “Turbidity (pH 7)” value was 0.08.

As for `CC(C)C[C@H](NC(=O)[C@H](Cc1ccccc1)NC(=O)[C@H](CCCNC(=N)N)NC(=O)[C@H](CCC(N)=O)NC(=O)[C@H](C)NC(=O)[C@H](C)NC(=O)[C@H](C)NC(=O)[C@H](Cc1ccccc1)NC(=O)[C@H](CCC(=O)O)NC(=O)[C@H](CCCCNC(=O)COCCOCCNC(=O)COCCOCCNC(=O)CC[C@H](NC(=O)CCCCCCCCCCCCCCCCCCC(=O)O)C(=O)O)NC(=O)[C@H](CC(C)C)NC(=O)[C@H](Cc1ccccc1)NC(=O)[C@H](CO)NC(=O)[C@@H](NC(=O)[C@H](CC(=O)O)NC(=O)[C@H](CO)NC(=O)[C@@H](NC(=O)[C@H](Cc1ccccc1)NC(=O)[C@@H](NC(=O)CNC(=O)[C@H](CCC(=O)O)NC(=O)C(C)(C)NC(=O)[C@@H](N)Cc1c[nH]cn1)[C@@H](C)O)[C@@H](C)O)C(C)C)C(=O)N[C@@H](CCC(=O)O)C(=O)N[C@@H](Cc1c[nH]cn1)C(=O)N[C@@H](CC(C)C)C(=O)N[C@H](C(N)=O)C(C)C` [compound 84] (H-H[Aib]EGTFTSDVSFLK([AEEA-AEEA-γGlu-C20 diacid])EFAAAQRFLEHLV-NH2), the EC50 on SCTR (setting [6]) is 3980 nM; at GLP1R (setting [7]) it was 0.0794 nM. In series [1], this compound gave a Fibril formation of 47022. Moreover, at GLP1R (setting [8]), the “SCTR EC50/GLP1R EC50 ratio” value was 51215. Moreover, the “Turbidity (pH 7)” value in series [2] was determined as 0.08.

Regarding `CC(C)C[C@H](NC(=O)[C@H](Cc1ccccc1)NC(=O)[C@H](CCCNC(=N)N)NC(=O)[C@H](CCC(N)=O)NC(=O)[C@H](CC(C)C)NC(=O)C(C)(C)NC(=O)[C@H](C)NC(=O)[C@H](CCC(=O)O)NC(=O)[C@H](CCC(=O)O)NC(=O)[C@H](CCCCNC(=O)COCCOCCNC(=O)COCCOCCNC(=O)CC[C@H](NC(=O)CCCCCCCCCCCCCCCCCCC(=O)O)C(=O)O)NC(=O)[C@H](CC(C)C)NC(=O)[C@H](CC(C)C)NC(=O)[C@H](CO)NC(=O)[C@@H](NC(=O)[C@H](CC(=O)O)NC(=O)[C@H](CO)NC(=O)[C@@H](NC(=O)[C@H](Cc1ccccc1)NC(=O)[C@@H](NC(=O)CNC(=O)[C@H](CCC(=O)O)NC(=O)C(C)(C)NC(=O)[C@@H](N)Cc1c[nH]cn1)[C@@H](C)O)[C@@H](C)O)C(C)C)C(=O)N[C@@H](CCC(=O)O)C(=O)N[C@@H](Cc1c[nH]cn1)C(=O)N[C@@H](CC(C)C)C(=O)N[C@H](C(N)=O)C(C)C` [compound 149] (H-H[Aib]EGTFTSDVSLLK([AEEA-AEEA-γGlu-C20 diacid])EEA[Aib]LQRFLEHLV-NH2), the EC50 on SCTR (setting [6]) is 31.6 nM; at GLP1R (setting [7]), 0.0126 nM. In addition, the Fibril formation in series [1] was determined as 2878. In addition, the “SCTR EC50/GLP1R EC50 ratio” value on GLP1R (setting [8]) was found to be 2619. Further, in series [2], the “Turbidity (pH 7)” value came out at 0.08.

As to `CC[C@H](C)[C@H](NC(=O)[C@H](Cc1ccccc1)NC(=O)[C@H](CCCNC(=N)N)NC(=O)[C@H](CCC(N)=O)NC(=O)[C@H](CC(C)C)NC(=O)[C@H](C)NC(=O)[C@H](C)NC(=O)CNC(=O)[C@H](CCC(=O)O)NC(=O)[C@H](CC(C)C)NC(=O)[C@H](CC(C)C)NC(=O)[C@H](Cc1c[nH]c2ccccc12)NC(=O)[C@H](CO)NC(=O)[C@H](Cc1ccc(O)cc1)NC(=O)[C@H](CC(=O)O)NC(=O)[C@H](CO)NC(=O)[C@@H](NC(=O)[C@H](Cc1ccccc1)NC(=O)[C@@H](NC(=O)CNC(=O)[C@H](CCC(=O)O)NC(=O)C(C)(C)NC(=O)[C@@H](N)Cc1c[nH]cn1)[C@@H](C)O)[C@@H](C)O)C(=O)N[C@@H](CCC(N)=O)C(=O)N[C@@H](Cc1c[nH]c2ccccc12)C(=O)N[C@@H](CC(C)C)C(=O)N[C@H](C(N)=O)C(C)C` [compound 200] (H-H[Aib]EGTFTSDYSWLLEGAALQRFIQWLV-NH2), the EC50 on SCTR (setting [3]) is 7.94 nM; on GLP1R (setting [4]), 0.02 nM. For the same compound, the Fibril formation in series [1] came to 141730. Also, the “SCTR EC50/GLP1R EC50 ratio” value on GLP1R (setting [5]) is listed as 353. In series [2], the “Turbidity (pH 7)” value was 0.92.

With `CC[C@H](C)[C@H](NC(=O)[C@H](Cc1ccccc1)NC(=O)[C@H](CCCNC(=N)N)NC(=O)[C@H](CCC(N)=O)NC(=O)[C@H](CC(C)C)NC(=O)[C@H](C)NC(=O)[C@H](C)NC(=O)CNC(=O)[C@H](CCC(=O)O)NC(=O)[C@H](CC(C)C)NC(=O)[C@H](CC(C)C)NC(=O)[C@H](Cc1c[nH]c2ccccc12)NC(=O)[C@H](CO)NC(=O)[C@@H](NC(=O)[C@H](CC(=O)O)NC(=O)[C@H](CO)NC(=O)[C@@H](NC(=O)[C@H](Cc1ccccc1)NC(=O)[C@@H](NC(=O)CNC(=O)[C@H](CCC(=O)O)NC(=O)C(C)(C)NC(=O)[C@@H](N)Cc1c[nH]cn1)[C@@H](C)O)[C@@H](C)O)[C@@H](C)CC)C(=O)N[C@@H](CCC(N)=O)C(=O)N[C@@H](Cc1c[nH]c2ccccc12)C(=O)N[C@@H](CC(C)C)C(=O)N[C@H](C(N)=O)C(C)C` [compound 118] (H-H[Aib]EGTFTSDISWLLEGAALQRFIQWLV-NH2), the EC50 is 79.4 nM at SCTR (setting [6]) and 0.0631 nM on GLP1R (setting [7]). Moreover, the Fibril formation in series [1] amounted to 143374. Further, the “SCTR EC50/GLP1R EC50 ratio” value at GLP1R (setting [8]) came to 1256. Moreover, the “Turbidity (pH 7)” value in series [2] worked out at 0.63.

For the origin of these results see patent US20260201008A1, “SECRETIN-DERIVED GLP1R SELECTIVE AGONISTS” (GUBRA A/S, priority 2023, published 2026).
